Laboratory results: ChEMBL document CHEMBL1145146, “Synthesis of digalactosyl diacylglycerols and their structure-inhibitory activity on human lanosterol synthase” (Bioorg Med Chem Lett, 2005)

Assays:
[1] = target: T1, Lanosterol synthase (Homo sapiens) (UniProt P48449); assay: Inhibitory activity against lanosteral synthase at 0.25 umol/assay; parameters: scale not given: the % may be the effect or the level left
T1 sequence (whole entry): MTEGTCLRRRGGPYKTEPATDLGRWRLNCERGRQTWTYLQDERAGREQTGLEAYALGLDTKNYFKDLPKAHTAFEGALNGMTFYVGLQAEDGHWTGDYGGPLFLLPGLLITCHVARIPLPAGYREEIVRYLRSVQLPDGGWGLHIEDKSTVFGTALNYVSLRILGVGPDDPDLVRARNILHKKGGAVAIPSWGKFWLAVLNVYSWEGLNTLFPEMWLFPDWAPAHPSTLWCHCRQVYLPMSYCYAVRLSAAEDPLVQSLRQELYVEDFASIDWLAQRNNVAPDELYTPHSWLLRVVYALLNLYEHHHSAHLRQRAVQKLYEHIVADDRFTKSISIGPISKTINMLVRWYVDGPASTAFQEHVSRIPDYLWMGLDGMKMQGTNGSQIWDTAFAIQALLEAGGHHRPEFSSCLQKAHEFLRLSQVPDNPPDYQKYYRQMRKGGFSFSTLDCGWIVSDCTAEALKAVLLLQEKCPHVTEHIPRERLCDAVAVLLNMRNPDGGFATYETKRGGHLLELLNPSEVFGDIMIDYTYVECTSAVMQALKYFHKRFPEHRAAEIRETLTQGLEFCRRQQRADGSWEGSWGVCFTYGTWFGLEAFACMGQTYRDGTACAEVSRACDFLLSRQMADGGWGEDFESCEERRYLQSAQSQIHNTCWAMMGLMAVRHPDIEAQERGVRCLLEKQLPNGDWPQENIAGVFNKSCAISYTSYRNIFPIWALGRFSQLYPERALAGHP

[2] = target: T1, Lanosterol synthase (Homo sapiens); assay: Inhibitory activity against lanosteral synthase at 0.5 umol/assay; parameters: scale not given: the % may be the effect or the level left
[3] = target: T1, Lanosterol synthase (Homo sapiens); assay: Inhibitory activity against lanosteral synthase at 0.4 umol/assay; parameters: scale not given: the % may be the effect or the level left
[4] = target: T1, Lanosterol synthase (Homo sapiens); assay: Inhibitory activity against lanosteral synthase at 0.25 umol/assay; n.d. = not detected
[5] = target: T1, Lanosterol synthase (Homo sapiens); assay: Inhibitory activity against lanosteral synthase at 0.5 umol/assay; n.d. = not detected
Beta-secretase 1 = Beta-secretase 1 (Homo sapiens, UniProt P56817); assay: Binding affinity against human brain memapsin 2; assay type: tissue-based
Sequence of Beta-secretase 1 (P56817 whole entry): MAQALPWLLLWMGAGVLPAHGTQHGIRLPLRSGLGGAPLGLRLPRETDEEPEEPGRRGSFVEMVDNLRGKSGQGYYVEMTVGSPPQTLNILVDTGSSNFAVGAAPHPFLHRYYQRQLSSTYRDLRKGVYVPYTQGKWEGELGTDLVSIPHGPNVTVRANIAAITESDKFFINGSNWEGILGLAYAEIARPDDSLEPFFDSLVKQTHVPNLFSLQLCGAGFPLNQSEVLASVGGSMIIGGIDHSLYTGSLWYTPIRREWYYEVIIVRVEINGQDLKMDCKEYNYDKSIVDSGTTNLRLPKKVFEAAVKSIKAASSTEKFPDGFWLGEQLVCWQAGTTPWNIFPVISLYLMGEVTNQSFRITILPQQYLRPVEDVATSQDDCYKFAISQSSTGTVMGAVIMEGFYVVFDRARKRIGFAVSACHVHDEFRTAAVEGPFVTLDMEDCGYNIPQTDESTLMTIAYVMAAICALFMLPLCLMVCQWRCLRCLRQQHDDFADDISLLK

`CCCCCC/C=C\CCCCCCCC(=O)OCC(CO[C@@H]1O[C@H](CO[C@H]2O[C@H](CO)[C@H](O)[C@H](O)[C@H]2O)[C@H](O)[C@H](O)[C@H]1O)OC(=O)CCCCCCC/C=C/CCCCCCCC` (stereo partly specified) showed an Activity [1] of 4% and an Activity [2] of 21%.

`CCCCCC/C=C/CCCCCCCC(=O)OC(COC(=O)CCCCCCC/C=C/CCCCCCCC)CO[C@@H]1O[C@H](COC2O[C@H](CO)[C@H](O)C(O)[C@H]2O)[C@H](O)C(O)[C@H]1O` (single isomer, unassigned) was tested, and the Activity [1] was 24% and the Activity [2] was 46%.

With `CC/C=C\C/C=C\C/C=C\CCCCCCCC(=O)OC(COC(=O)CCCCCCCCCCCCC)CO[C@@H]1OC(CO)[C@H](O)[C@@H](O)C1O` (stereo partly specified) the Activity [3] was 23%.

`CCCCCCCC/C=C/CCCCCCCC(=O)OCC(CO[C@@H]1O[C@H](CO[C@H]2O[C@H](CO)[C@H](O)C(O)[C@H]2O)[C@H](O)C(O)[C@H]1O)OC(=O)CCCCCCC/C=C/CCCCCCCC` (single isomer, unassigned) was tested, and the Activity [1] was 42% and the Activity [2] was 57%.

Work on `CC/C=C\C/C=C\C/C=C\CCCCCCCC(=O)OCC(CO[C@@H]1O[C@H](CO[C@H]2O[C@H](CO)[C@H](O)C(O)[C@H]2O)[C@H](O)C(O)[C@H]1O)OC(=O)CCCCCCC/C=C\C/C=C\C/C=C\CC` (single isomer, unassigned; 2d) yielded an Activity [1] of 18% and an Activity [2] of 45%.

Work on `CCCCCC/C=C\CCCCCCCC(=O)OCC(CO[C@@H]1O[C@H](CO[C@H]2O[C@H](CO)[C@H](O)[C@H](O)[C@H]2O)[C@H](O)[C@H](O)[C@H]1O)OC(=O)CCCCCCC/C=C\CCCCCC` (stereo partly specified) yielded an Activity [1] of 4% and an Activity [2] of 24%.

Work on `CC/C=C\C/C=C\C/C=C\CCCCCCCC(=O)OCC(CO[C@@H]1O[C@H](CO)[C@H](O)C(O)[C@H]1O)OC(=O)CCCCCCC/C=C\CCCCCCCC` (single isomer, unassigned) yielded an Activity [3] of 19%.

`CCCCCCCCCCCCCC(=O)OCC(CO[C@@H]1O[C@H](CO[C@H]2O[C@H](CO)[C@H](O)C(O)[C@H]2O)[C@H](O)C(O)[C@H]1O)OC(=O)CCCCCCCCCCCCC` (single isomer, unassigned) showed an Activity [1] of 51% and an Activity [2] of 72%.

With `OCC(O)CO[C@@H]1O[C@H](CO[C@H]2O[C@H](CO)[C@H](O)[C@H](O)[C@H]2O)[C@H](O)[C@H](O)[C@H]1O` (stereo partly specified) the Activity [4] was “Not detected” and the Activity [5] was “Not detected”.

With `CC/C=C\C/C=C\C/C=C\CCCCCCCC(=O)OCC(CO[C@@H]1O[C@H](CO[C@H]2O[C@H](CO)[C@H](O)C(O)[C@H]2O)[C@H](O)C(O)[C@H]1O)OC(=O)CCCCCCC/C=C\C/C=C\C/C=C\CC` (single isomer, unassigned; 2k) the Activity [4] was “Not detected” and the Activity [2] was 26%.

`CC/C=C\C/C=C\C/C=C\CCCCCCCC(=O)OC(COC(=O)CCCCCCC/C=C/CCCCCCCC)CO[C@@H]1O[C@H](CO[C@H]2O[C@H](CO)[C@H](O)C(O)[C@H]2O)[C@H](O)C(O)[C@H]1O` (single isomer, unassigned; 2i) showed an Activity [1] of 7% and an Activity [2] of 29%.

In the case of `CC/C=C\C/C=C\C/C=C\CCCCCCCC(=O)OCC(CO[C@@H]1O[C@H](CO[C@H]2O[C@H](CO)[C@H](O)C(O)[C@H]2O)[C@H](O)C(O)[C@H]1O)OC(=O)CCCCCCC/C=C/CCCCCCCC` (single isomer, unassigned), the Activity [1] is reported as 8% and the Activity [2] is reported as 31%.

`CC/C=C\C/C=C\C/C=C\CCCCCCCC(=O)OC(COC(=O)CCCCCCC/C=C\CCCCCC)CO[C@@H]1O[C@H](CO)[C@H](O)C(O)[C@H]1O` (single isomer, unassigned) was tested, and the Activity [3] was 16%.

In the case of `CC/C=C\C/C=C\C/C=C\CCCCCCCC(=O)OC(COC(=O)CCCCCCC/C=C\CCCCCC)CO[C@@H]1O[C@H](CO[C@H]2O[C@H](CO)[C@H](O)[C@H](O)[C@H]2O)[C@H](O)[C@H](O)[C@H]1O` (stereo partly specified), the Activity [4] is reported as “Not detected” and the Activity [2] is reported as 20%.

For `CC/C=C\C/C=C\C/C=C\CCCCCCCC(=O)OC(COC(=O)CCCCCCC/C=C/CCCCCCCC)CO[C@@H]1O[C@H](CO[C@H]2O[C@H](CO)[C@H](O)C(O)[C@H]2O)[C@H](O)C(O)[C@H]1O` (single isomer, unassigned; 2f), the Activity [1] was 9% and the Activity [2] was 40%.

In the case of `CC/C=C\C/C=C\C/C=C\CCCCCCCC(=O)OCC(CO[C@@H]1OC(CO[C@H]2OC(CO)[C@H](O)[C@@H](O)C2O)[C@H](O)[C@@H](O)C1O)OC(=O)CCCCCCCCCCCCC` (stereo partly specified), the Activity [1] is reported as 22% and the Activity [2] is reported as 38%.

With `C=CCNC(=O)C[C@H](NC(=O)C(NC(=O)OCC=C)C(C)C)C(=O)N[C@@H](CC(C)C)[C@@H](O)C[C@@H](C)C(=O)N[C@H](C(=O)NCc1ccccc1)C(C)C` (stereo partly specified) the Ki (Beta-secretase 1) was 26.6 nM.

For `CC/C=C\C/C=C\C/C=C\CCCCCCCC(=O)OCC(CO[C@@H]1O[C@H](CO[C@H]2O[C@H](CO)[C@H](O)C(O)[C@H]2O)[C@H](O)C(O)[C@H]1O)OC(=O)CCCCCCC/C=C\CCCCCC` (single isomer, unassigned; 2l), the Activity [1] was 5% and the Activity [2] was 26%.

Work on `CC/C=C\C/C=C\C/C=C\CCCCCCCC(=O)OCC(CO[C@@H]1O[C@H](CO[C@H]2O[C@H](CO)[C@H](O)C(O)[C@H]2O)[C@H](O)C(O)[C@H]1O)OC(=O)CCCCCCC/C=C\CCCCCC` (single isomer, unassigned; 2j) yielded an Activity [1] of 3% and an Activity [2] of 27%.

In the case of `CCCCCC/C=C\CCCCCCCC(=O)OC(COC(=O)CCCCCCCCCCCCC)CO[C@@H]1OC(CO[C@H]2OC(CO)[C@H](O)[C@@H](O)C2O)[C@H](O)[C@@H](O)C1O` (stereo partly specified), the Activity [1] is reported as 35% and the Activity [2] is reported as 45%.
